Experiments:
[1] = biological target: T1, human α1-β2-γ2L GABAA-receptor subtype (Homo sapiens, UniProt P14867+P47870); assay: Patch clamp (Dynaflow) GABA-mediated current response, HEK-293 cells, α1β2γ2L; type: cell-based; details: 1 μM steroid, α1β2γ2L; for effect on GABA response: mean ± SEM, + enhancement, − reduction
T1 construct: expressed in transfected cells
Excerpt: (§1) In these tests the protocol was optimized to be like the physiological conditions in the synaptic cleft.
(§2) Preparation of cell lines: HEK-293 cells permanently transfected with the human α1-β2-γ2L, α2-β3-γ2S, α3-ββ3-γ2L, α4-β3-δ or α5-β3-γ2L GABAA-receptor subtypes were used. The cell lines permanently expressing a functional human GABAA-receptor was made in following steps. The human GABAA-receptor subunits e.g. α1 (308-1727 NM_000806), β2 (214-1679 NM_000813), γ2L (290-1785 NM_198904), α2, β3, γ2S, α3, α4, δ and α5 including introduced Kozac sequences just before the start codons were subcloned into mammalian expression vectors containing Geneticin, Hygromycin B, and Zeocin resistance, respectively. A HEK-293 cell line stably expressing the three GABAA-receptor subunits was produced by transfection of the subunits, one at a time. The transfection was followed by selection with the appropriate antibiotics, cell separation with the use of subunit specific antibodies and production of single cell colonies. Produced cell lines were analysed with immunocytochemistry for the three GABAA-receptor subunits, followed by selection of a suitable cell line showing, for the GABAA-receptor normal and good reactivity in a patch-clamp analysis (see below) towards GABA and the GAMS THDOC.
(§3) Cell culture: HEK-293 cells, permanently transfected with human α1-β2-γ2L, α2-β3-γ2S, α3-β3-γ2L, α4-β3-δ and α5-β3-γ2L GABAA-receptor subtypes, were seeded at a density of 3×10^4/25 cm^2 in cell binding culture flask. The transfected cells were used for patch-clamp experiments 3 days after seeding. When using the cells for patch-clamp experiments the cells were washed twice with oxygen-bubbled EC-solution (see below). About 5 mL EC was then added and the cells were kept in the incubator for about 15 minutes. After 15 minutes the cells came loose from the bottom of the flask and were separated by carefully sucking couple of times with a Pasteur pipette.
(§4) Dynaflow™ system: Dynaflow™ system with resolve chips was used for all patch-clamp experiments. The resolve chips is made of non-sticky materials. The channel width is 150 μm and the height 50 μm. The well volume is 280 μL. Run time at the flow rate of 26 μL/min is […]. The pump settings were as follow: Omnifix 2 ml syringe with inner diameter of 9.65 mm was used. The syringe pump flow rate of chip was 26 μL/min.
(§5) Steroids and GABA: GABA was dissolved in EC-solution by ultrasound for about 40 minutes to the concentration of 10 mM in room temperature. All steroids were dissolved to the concentration of 6 mM in dimethyl sulfoxide (DMSO). The DMSO concentration was 0.1% in all end-solutions, including the wash solution (EC) and the solution with GABA alone. End-solutions are the solutions added into the wells of the chip.
Electrophysiology: Patch electrodes were pulled from 1.5 mm O.D., 0.86 mm I.D. borosilicate capillary glass without filament. […] The intracellular solution (IC) comprised of (in mM): 140 Cs-gluconate, 3.0 NaCl, 1.2 MgCl2, 1.0 EGTA, 10 HEPES. pH was adjusted to 7.2 with CsOH. The extracellular (EC) solution used during recordings contained (in mM): 137 NaCl, 5.0 KCl, 1.0 CaCl2), 1.2 MgCl2, 10 HEPES, 10 glucose. pH was adjusted with NaOH to 7.4. After compensating for the liquid junction potential, a steady holding potential of −17 mV was used in all experiments. In physiological conditions the HEK-293 has a resting potential at −40 mV and a low concentration of chloride ions inside the cell. […]

[2] = biological target: T2, human α2-β3-γ2S GABAA-receptor subtype (Homo sapiens, UniProt P28472+P47869); assay: Patch clamp (Dynaflow) GABA-mediated current response, HEK-293 cells, α2β3γ2S; type: cell-based; details: 1 μM steroid
T2 construct: expressed in transfected cells
T2 sequence (P47869 29-451): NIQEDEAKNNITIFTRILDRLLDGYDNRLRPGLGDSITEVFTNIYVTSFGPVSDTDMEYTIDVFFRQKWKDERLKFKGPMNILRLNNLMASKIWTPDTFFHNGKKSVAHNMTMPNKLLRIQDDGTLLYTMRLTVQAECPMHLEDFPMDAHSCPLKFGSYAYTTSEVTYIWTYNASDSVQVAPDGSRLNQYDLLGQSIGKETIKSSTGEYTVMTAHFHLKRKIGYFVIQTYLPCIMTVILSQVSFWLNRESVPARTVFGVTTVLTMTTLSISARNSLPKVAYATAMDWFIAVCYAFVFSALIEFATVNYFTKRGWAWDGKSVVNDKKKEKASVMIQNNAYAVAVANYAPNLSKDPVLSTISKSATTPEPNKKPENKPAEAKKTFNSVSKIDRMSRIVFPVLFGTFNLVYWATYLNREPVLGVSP
T2 sequence (P28472 26-473): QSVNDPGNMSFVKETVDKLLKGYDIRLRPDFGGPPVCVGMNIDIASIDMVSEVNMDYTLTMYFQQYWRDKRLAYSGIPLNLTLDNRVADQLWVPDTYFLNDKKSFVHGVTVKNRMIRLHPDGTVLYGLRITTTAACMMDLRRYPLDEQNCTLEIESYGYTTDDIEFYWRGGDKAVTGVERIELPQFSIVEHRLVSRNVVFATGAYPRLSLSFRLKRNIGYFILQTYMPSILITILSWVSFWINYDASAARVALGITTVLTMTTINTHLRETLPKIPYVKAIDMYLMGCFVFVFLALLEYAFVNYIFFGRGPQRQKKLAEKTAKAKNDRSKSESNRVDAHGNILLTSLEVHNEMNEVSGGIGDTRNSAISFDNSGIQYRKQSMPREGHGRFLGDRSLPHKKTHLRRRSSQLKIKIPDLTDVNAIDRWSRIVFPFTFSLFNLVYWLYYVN
T2 sequence (P18507 40-467 isoform P18507-1 partner limits assumed): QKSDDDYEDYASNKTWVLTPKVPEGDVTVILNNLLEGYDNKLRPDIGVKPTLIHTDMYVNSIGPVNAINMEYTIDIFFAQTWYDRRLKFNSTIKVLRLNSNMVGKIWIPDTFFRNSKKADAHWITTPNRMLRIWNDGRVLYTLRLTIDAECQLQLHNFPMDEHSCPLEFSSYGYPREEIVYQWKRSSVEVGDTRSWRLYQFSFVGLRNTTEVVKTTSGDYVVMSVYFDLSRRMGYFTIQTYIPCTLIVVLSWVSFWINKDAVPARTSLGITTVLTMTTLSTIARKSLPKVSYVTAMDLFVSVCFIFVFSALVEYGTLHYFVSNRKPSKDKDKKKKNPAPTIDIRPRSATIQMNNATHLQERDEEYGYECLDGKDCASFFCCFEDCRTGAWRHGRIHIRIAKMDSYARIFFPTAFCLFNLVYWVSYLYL
Excerpt: as §1, §2, §3, §4
as §5, with “chip. […]” for “chip.”

[3] = biological target: T3, human α3-β3-γ2L GABAA-receptor subtype (Homo sapiens, UniProt P28472+P34903); assay: Patch clamp (Dynaflow) GABA-mediated current response, HEK-293 cells, α3β3γ2L; type: cell-based; details: for effect on GABA (in words) / effect on GABA response: 1 μM steroid; for activation of the receptor in the absence of GABA / Imax on 100 μM GABA mediated current response: 0.01-10 μM steroid; for activation of the receptor in the absence of GABA: no GABA, data not shown; for Imax on 100 μM GABA mediated current response: from best fit curve
T3 construct: expressed in transfected cells
T3 sequence (P34903 29-492): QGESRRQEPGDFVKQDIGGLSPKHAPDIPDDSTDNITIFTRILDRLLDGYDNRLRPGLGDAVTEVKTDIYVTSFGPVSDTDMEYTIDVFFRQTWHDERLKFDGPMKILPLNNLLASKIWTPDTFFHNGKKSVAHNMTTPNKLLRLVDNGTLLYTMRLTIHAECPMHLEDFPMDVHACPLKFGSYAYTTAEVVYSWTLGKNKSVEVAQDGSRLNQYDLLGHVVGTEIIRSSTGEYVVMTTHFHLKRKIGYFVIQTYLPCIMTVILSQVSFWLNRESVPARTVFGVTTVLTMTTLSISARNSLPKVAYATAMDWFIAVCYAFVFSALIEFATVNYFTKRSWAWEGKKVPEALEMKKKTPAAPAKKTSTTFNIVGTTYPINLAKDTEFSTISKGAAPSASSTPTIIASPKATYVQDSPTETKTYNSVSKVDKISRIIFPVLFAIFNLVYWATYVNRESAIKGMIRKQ
T3 sequence (P28472 26-473): as the sequence (P28472 26-473) above
T3 sequence (P18507 40-475 partner): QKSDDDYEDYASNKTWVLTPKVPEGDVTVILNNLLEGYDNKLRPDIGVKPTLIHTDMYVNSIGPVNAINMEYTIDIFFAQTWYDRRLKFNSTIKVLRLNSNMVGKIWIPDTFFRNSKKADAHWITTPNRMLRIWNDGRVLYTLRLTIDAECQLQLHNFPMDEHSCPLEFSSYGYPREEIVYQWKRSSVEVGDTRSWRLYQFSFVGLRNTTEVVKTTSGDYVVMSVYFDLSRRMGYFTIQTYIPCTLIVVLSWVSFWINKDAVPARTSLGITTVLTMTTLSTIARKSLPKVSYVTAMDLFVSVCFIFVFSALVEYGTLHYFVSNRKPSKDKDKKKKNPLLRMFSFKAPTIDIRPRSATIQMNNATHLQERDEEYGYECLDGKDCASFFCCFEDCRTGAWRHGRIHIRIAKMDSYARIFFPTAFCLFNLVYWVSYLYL
Excerpt: as §1, §2, §3, §4, §5
(§6) Electrophysiology: Patch electrodes were pulled from 1.5 mm O.D., 0.86 mm I.D. borosilicate capillary glass without filament. […] The intracellular solution (IC) comprised of (in mM): 140 Cs-gluconate, 3.0 NaCl, 1.2 MgCl2, 1.0 EGTA, 10 HEPES. pH was adjusted to 7.2 with CsOH. The extracellular (EC) solution used during recordings contained (in mM): 137 NaCl, 5.0 KCl, 1.0 CaCl2), 1.2 MgCl2, 10 HEPES, 10 glucose. pH was adjusted with NaOH to 7.4. After compensating for the liquid junction potential, a steady holding potential of −17 mV was used in all experiments. In physiological conditions the HEK-293 has a resting potential at −40 mV and a low concentration of chloride ions inside the cell. By using the holding potential of-17 mV and the intracellular solution with low chloride ion concentration the chloride ions flux into the cell when the receptors are activated. All experiments were performed at room temperature (21 to 23° C.). The following standard protocol was used for all experiments.
(§7) GABA applications: By using the Dynaflow equipment it is possible to study transfected HEK-293 during almost physiological conditions.

[4] = biological target: T4, human α4-β3-δ GABAA-receptor subtype (Homo sapiens, UniProt P28472+P48169); assay: Patch clamp (Dynaflow) GABA-mediated current response, HEK-293 cells, α4β3δ; type: cell-based; details: 1 μM steroid
T4 construct: expressed in transfected cells
T4 sequence (P48169 36-554): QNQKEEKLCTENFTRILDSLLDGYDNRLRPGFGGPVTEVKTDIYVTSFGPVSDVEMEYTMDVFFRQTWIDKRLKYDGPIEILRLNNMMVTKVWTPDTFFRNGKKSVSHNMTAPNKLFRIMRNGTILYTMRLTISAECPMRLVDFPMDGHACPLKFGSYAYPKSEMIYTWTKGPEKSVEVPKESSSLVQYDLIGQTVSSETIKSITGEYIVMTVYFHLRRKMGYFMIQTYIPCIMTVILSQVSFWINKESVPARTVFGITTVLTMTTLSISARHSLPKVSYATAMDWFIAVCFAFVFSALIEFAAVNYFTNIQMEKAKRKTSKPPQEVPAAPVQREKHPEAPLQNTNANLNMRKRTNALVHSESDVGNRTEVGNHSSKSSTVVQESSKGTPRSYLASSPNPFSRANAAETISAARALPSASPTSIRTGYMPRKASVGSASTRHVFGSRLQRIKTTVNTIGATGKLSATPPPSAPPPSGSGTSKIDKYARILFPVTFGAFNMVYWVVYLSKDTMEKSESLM
T4 sequence (P28472 26-473): as the sequence (P28472 26-473) above
T4 sequence (O14764 25-452 partner): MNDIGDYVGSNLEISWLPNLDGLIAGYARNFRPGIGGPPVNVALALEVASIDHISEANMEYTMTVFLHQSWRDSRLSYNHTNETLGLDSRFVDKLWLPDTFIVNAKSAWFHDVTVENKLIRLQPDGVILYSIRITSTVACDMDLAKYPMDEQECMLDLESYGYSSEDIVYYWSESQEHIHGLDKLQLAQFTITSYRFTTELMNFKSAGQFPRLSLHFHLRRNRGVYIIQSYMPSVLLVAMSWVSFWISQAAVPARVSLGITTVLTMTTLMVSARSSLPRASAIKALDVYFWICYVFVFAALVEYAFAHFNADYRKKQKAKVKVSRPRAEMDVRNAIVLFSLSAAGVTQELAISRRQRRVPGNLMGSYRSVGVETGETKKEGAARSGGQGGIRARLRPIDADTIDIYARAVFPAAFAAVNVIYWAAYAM
Excerpt: as §1, §2, §3, §4
as §5, with “chip. […]” for “chip.”

[5] = biological target: T5, human α5-β3-γ2L GABAA-receptor subtype (Homo sapiens, UniProt P28472+P31644); assay: Patch clamp (Dynaflow) GABA-mediated current response, HEK-293 cells, α5β3γ2L; type: cell-based; details: 1 μM steroid
T5 construct: expressed in transfected cells
T5 sequence (P31644 32-462): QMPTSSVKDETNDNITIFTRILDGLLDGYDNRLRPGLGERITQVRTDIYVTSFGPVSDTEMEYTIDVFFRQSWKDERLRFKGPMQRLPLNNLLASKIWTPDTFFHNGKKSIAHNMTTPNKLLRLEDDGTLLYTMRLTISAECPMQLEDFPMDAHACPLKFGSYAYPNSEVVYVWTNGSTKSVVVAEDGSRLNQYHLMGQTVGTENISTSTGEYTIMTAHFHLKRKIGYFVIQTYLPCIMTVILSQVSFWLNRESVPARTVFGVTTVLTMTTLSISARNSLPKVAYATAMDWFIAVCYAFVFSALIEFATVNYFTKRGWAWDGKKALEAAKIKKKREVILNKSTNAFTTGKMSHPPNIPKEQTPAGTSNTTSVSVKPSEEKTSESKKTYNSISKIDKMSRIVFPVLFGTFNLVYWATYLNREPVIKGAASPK
T5 sequence (P28472 26-473): as the sequence (P28472 26-473) above
T5 sequence (P18507 40-475 partner): as the sequence (P18507 40-475 partner) above
Excerpt: as §1, §2, §3, §4
as §5, with “chip. […]” for “chip.”

[6] = biological target: T6, human GABAA-receptor subtype α3β3γ2L (Homo sapiens, UniProt P28472+P34903); assay: Patch clamp (Dynaflow) THDOC enhancement of GABA response, HEK-293 cells, α3β3γ2L; type: cell-based; details: for reduction of THDOC-enhanced GABA effect, Mean ± SEM %: 100 nM THDOC, 100 μM GABA, GABA response subtracted
T6 construct: expressed in transfected cells
T6 sequence (P34903 29-492): as the sequence (P34903 29-492) above
T6 sequence (P28472 26-473): as the sequence (P28472 26-473) above
T6 sequence (P18507 40-475 partner): as the sequence (P18507 40-475 partner) above
Excerpt: as §1, §2, §3, §4, §5, §6, §7

[7] = system: GABAA-receptors; assay: Patch clamp, steroid alone without GABA present; type: cell-based, human
Excerpt: as §1
as §2, with “THDOC. […]” for “THDOC.”

T1 sequence (P14867 28-456): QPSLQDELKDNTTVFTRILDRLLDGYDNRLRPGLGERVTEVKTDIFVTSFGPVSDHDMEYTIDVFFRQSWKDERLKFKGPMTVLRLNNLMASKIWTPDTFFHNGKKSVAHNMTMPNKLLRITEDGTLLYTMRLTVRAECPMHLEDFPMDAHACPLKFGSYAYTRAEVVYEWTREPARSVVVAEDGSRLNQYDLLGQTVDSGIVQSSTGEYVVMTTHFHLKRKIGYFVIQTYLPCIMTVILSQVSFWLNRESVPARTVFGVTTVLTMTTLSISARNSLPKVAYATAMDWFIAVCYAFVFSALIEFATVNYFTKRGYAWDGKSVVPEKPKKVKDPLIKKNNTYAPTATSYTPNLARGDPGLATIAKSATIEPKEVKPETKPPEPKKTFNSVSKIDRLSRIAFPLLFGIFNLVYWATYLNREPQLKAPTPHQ
T1 sequence (P47870 26-474 isoform P47870-1 limits assumed): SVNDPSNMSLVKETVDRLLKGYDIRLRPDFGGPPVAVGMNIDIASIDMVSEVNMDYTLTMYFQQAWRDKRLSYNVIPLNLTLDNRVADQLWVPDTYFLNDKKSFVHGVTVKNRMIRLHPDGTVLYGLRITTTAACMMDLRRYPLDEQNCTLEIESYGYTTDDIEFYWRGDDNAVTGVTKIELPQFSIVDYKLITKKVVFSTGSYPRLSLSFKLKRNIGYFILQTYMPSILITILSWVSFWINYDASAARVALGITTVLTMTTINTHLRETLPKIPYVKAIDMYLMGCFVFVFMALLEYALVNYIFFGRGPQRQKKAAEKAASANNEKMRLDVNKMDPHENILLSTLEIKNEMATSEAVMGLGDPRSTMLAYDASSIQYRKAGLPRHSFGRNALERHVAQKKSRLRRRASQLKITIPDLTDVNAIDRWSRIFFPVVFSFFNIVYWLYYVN
T1 sequence (P18507 40-475 partner): as the sequence (P18507 40-475 partner) above

| SMILES | effect on GABA (in words) [1] | effect on GABA response [1] | effect on GABA (in words) [2] | effect on GABA response [2] | IC50 [3] [nM] | effect on GABA (in words) ([3]; α3β3γ2L) | effect on GABA response ([3]; α3β3γ2L) [%] | activation of the receptor in the absence of GABA [3] | Imax on 100 μM GABA mediated current response ([3]; α3β3γ2L) [%] | effect on 100 μM GABA response, Mean ± SEM % ([3]; steroid conc. 0.01 μM, α3β3γ2L) | effect on 100 μM GABA response, Mean ± SEM % ([3]; steroid conc. 0.03 μM, α3β3γ2L) | effect on 100 μM GABA response, Mean ± SEM % ([3]; steroid conc. 0.1 μM, α3β3γ2L) | effect on 100 μM GABA response, Mean ± SEM % ([3]; steroid conc. 0.3 μM, α3β3γ2L) | effect on 100 μM GABA response, Mean ± SEM % ([3]; steroid conc. 1 μM, α3β3γ2L) [%] | effect on 100 μM GABA response, Mean ± SEM % ([3]; steroid conc. 3 μM, α3β3γ2L) [%] | effect on 100 μM GABA response, Mean ± SEM % ([3]; steroid conc. 10 μM, α3β3γ2L) [%] | effect on GABA (in words) [4] | effect on GABA response [4] | effect on GABA (in words) [5] | effect on GABA response [5] | other results |
| --- | --- | --- | --- | --- | --- | --- | --- | --- | --- | --- | --- | --- | --- | --- | --- | --- | --- | --- | --- | --- | --- |
| CC[C@]1(O)CC[C@@]2(C)[C@@H](CC[C@@H]3[C@@H]2CC[C@]2(C)C(=O)CC[C@@H]32)C1 [3α-ethyl-3β-hydroxy-5α-androstan-17-one] | significant antagonistic effect | −9.3 ± 1.3% | significant antagonistic effect | −29 ± 1.3% | 900 | significant antagonistic effect | −38 ± 2.4 | did activate the receptor in the absence of GABA | −77 | +6.6 ± 2.2% | −1.6 ± 0.7% | +4.4 ± 3.0% | −11 ± 0.7% | −39 ± 3.1 | −67 ± 3.0 | −75 ± 3.0 | significant antagonistic effect | −12 ± 2.3% | significant antagonistic effect | −38 ± 2.0% | significant reducing effect on 100 μM GABA response ([3]; at 0.3 μM, α3β3γ2L): more than 10%; concentration at which antagonistic effect against GABAs effect is seen ([3]; α3β3γ2L): ≥ 0.3 µM; reduction of THDOC-enhanced GABA effect, Mean ± SEM % ([6]; steroid conc. 0.03 μM): −4.4 ± 8.5%; reduction of THDOC-enhanced GABA effect, Mean ± SEM % ([6]; steroid conc. 0.1 μM): −35 ± 8.8%; reduction of THDOC-enhanced GABA effect, Mean ± SEM % ([6]; steroid conc. 0.3 μM): −72 ± 8.3%; reduction of THDOC-enhanced GABA effect, Mean ± SEM % ([6]; steroid conc. 1 μM): −120 ± 5.6%; reduction of THDOC-enhanced GABA effect, Mean ± SEM % ([6]; steroid conc. 3 μM): −202 ± 13%; concentration at which antagonistic effect on THDOC enhancement of GABA is seen ([6]; α3β3γ2L): ≥ 0.1 µM; effect on the GABAA-receptors alone without GABA present [7]: no effect |
| CC[C@]1(O)CC[C@@]2(C)[C@@H](CC[C@@H]3[C@@H]2CC[C@]2(C)[C@@H](C(C)=O)CC[C@@H]32)C1 [3α-ethyl-3β-hydroxy-5α-pregnan-20-one] | agonistic enhancing effect | +6.0 ± 2.0% | no significant antagonistic or agonistic effect | +0.6 ± 2.3% | 1700 | antagonizing effect | −8.5 ± 1.9 | did activate the receptor in the absence of GABA | −47 | +3.7 ± 2.4% | +9.1 ± 4.4% | +1.2 ± 4.2% | +15 ± 4.7% | −8.1 ± 2.7 | −32 ± 4.0 | −46 ± 6.8 | no significant antagonistic or agonistic effect | +6.5 ± 2.5% | no significant antagonistic or agonistic effect | +3.2 ± 2.6% | significant reducing effect on 100 μM GABA response ([3]; at 3 μM, α3β3γ2L): more than 30%; IC50 [6]: 400 nM; block of the THDOC enhancement ([6]; 3 μM steroid): completely block the THDOC enhancement; effect on THDOC's autonomic opening of the α3β3γ2L GABAA-receptor ([6]; in the range of the vehicle): slight agonistic effect; reduction of THDOC-enhanced GABA effect, Mean ± SEM % ([6]; steroid conc. 0.03 μM): +19 ± 7.4%; reduction of THDOC-enhanced GABA effect, Mean ± SEM % ([6]; steroid conc. 0.1 μM): −7.7 ± 12%; reduction of THDOC-enhanced GABA effect, Mean ± SEM % ([6]; steroid conc. 0.3 μM): −34 ± 6.7%; reduction of THDOC-enhanced GABA effect, Mean ± SEM % ([6]; steroid conc. 1 μM): −78 ± 8.8%; reduction of THDOC-enhanced GABA effect, Mean ± SEM % ([6]; steroid conc. 3 μM): −141 ± 15%; concentrations at which antagonist against THDOC enhancement of GABA ([6]; α3β3γ2L): above 300 nM; effect on the GABAA-receptors alone without GABA present [7]: no effect |

From patent publication US20250387409A1, “3-BETA-HYDROXY-3-ALPHA-ETHYL STEROIDS FOR MODULATION OF THE ALPHA-3 SUBTYPE OF THE GABAA RECEPTOR” (priority 2021, published 2025)
